Assay results as given in PMC9061857, “A fluorogenic probe for granzyme B enables in-biopsy evaluation and screening of response to anticancer immunotherapies” (Nature Communications, 2022).
Primed or numbered codes have the meaning given here. Where no end group is shown, it is not given here. The star is where a group is joined. BODIPY(FL) = CC1=CC(C)=[N+]2C1=Cc1ccc(CCC(=O)*)n1[B-]2(F)F; Dabcyl′ = quencher

Columns and labels:
human GzmB (hGzmB) [1] = target: T1, human GzmB (hGzmB) (Homo sapiens, UniProt P10144); assay: HPLC conversion of fluorogenic peptides by hGzmB; type: biochemical; conditions: probe 25 μM (Ac-IEPD-AMC 50 μM), TRIS buffer, 37 °C, HPLC-UV
T1 construct: For active GzmB vs pro-GzmB, p < 0.0001
Procedure: Supplementary Figure 1. Reactivity of fluorogenic substrates against human GzmB and limits of detection. a) Reaction conversion rates (by HPLC-UV detection at 350 nm) for Ac-IEPD-AMC (50 μM) in TRIS buffer (see Methods) at 37 °C containing different concentrations of hGzmB. Data presented as mean values±SEM (n=3 independent biological experiments). b) Reaction conversion rates (by HPLC-UV detection at 500 nm) for the tetrapeptide T1 (25 μM) in TRIS buffer at 37 °C containing different concentrations of hGzmB. Data presented as mean values±SEM (3 independent biological experiments).
Source data provided as a Source Data file.
(1 picture or pasted object on this page, not shown here)
Supplementary Table 1. Chemical structures and reactivity of FRET-based tetrapeptides against human GzmB.
Code Structure Linker Quencher HPLC conversion HPLC conversion […]
Supplementary Table 2. Sequences and reactivity of FRET-based hexapeptides against […]
Code Peptide sequence HPLC conversion
H1 Ile-Glu-Pro-Asp-Ala-Gly 75%
H2 Ile-Glu-Pro-Asp-Ser-Gly 80%
H3 Ile-Glu-Pro-Asp-Ser-Leu 80%
H4 Ile-Glu-Pro-Asp-Trp-Leu 82%
H6 Ile-Glu-Pro-Asp-Trp-Arg 40%
H7 Ile-Glu-Pro-Asp-Arg-Leu 60%
H5m Ile-Glu-Phe-Asp-Ala-Leu 70%

human GzmB (hGzmB) [2] = target: T1, human GzmB (hGzmB); assay: Fluorescence assay with recombinant hGzmB (fluorogenic response, time course); type: biochemical; conditions: probe 25 μM, hGzmB 20 nM
Procedure: Fluorescence-based assays with different enzymes were performed in the appropriate buffers. Probes (25 μM) were added to enzymes (20 nM or at the indicated concentrations) in 384-well plates and their fluorescence emission was recorded at 450 nm (for AMC) or 510 nm (for BODIPY) at 37 °C using a Synergy H1 Hybrid spectrophotometer. In experiments with Ac-IEPD-CHO (50 μM), the inhibitor was preincubated for 1 h with GzmB before the addition of any probe.

recombinant human GzmB = target: T2, recombinant human GzmB (Homo sapiens, UniProt P10144); assay: Kinetic measurements (Michaelis-Menten) with recombinant hGzmB; type: biochemical; conditions: Supplementary Table 4, recombinant human GzmB
T2 construct: For active GzmB vs pro-GzmB, p < 0.0001
Procedure: Fluorescence-based assays with different enzymes were performed in the appropriate buffers. […] In experiments with Ac-IEPD-CHO (50 μM), the inhibitor was preincubated for 1 h with GzmB before the addition of any probe.
Supplementary Table 4. Kinetic values determined for hexapeptides H2-H5 against
Probe Sequence kcat kcat / KM

human granzyme B (human) = human granzyme B (human) (UniProt P10144)
Sequence of human granzyme B (human) (P10144 21-247): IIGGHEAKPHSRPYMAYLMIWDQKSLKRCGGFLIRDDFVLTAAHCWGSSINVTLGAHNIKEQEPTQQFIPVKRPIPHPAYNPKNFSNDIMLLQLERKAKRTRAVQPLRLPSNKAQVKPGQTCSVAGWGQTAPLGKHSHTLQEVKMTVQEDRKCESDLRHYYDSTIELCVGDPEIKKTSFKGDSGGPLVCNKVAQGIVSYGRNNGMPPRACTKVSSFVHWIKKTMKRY

T1 sequence (P10144 21-247): as above
T2 sequence (P10144 21-247): as above

Row | Molecule | HPLC conversion (20 nM hGzmB, 2 h) (human GzmB (hGzmB) [1]) | S/N ratios (human GzmB (hGzmB) [2]; Data 1) | t50 (human GzmB (hGzmB) [2]; Data 1) | S/N ratios (human GzmB (hGzmB) [2]; Data 2) | t50 (human GzmB (hGzmB) [2]; Data 2) | S/N ratios (human GzmB (hGzmB) [2]; Data 3) | t50 (human GzmB (hGzmB) [2]; Data 3) | kcat (recombinant human GzmB) | S/N ratios (fluorescence increase, signal-to-background) (human GzmB (hGzmB) [2]; mean ± SEM, n = 3) | conversion (cleavage) after 2 h with 20 nM hGzmB (human granzyme B (human)) | conversion (cleavage) by hGzmB (human granzyme B (human))
1 | IEPDAG [H1, FRET hexapeptide IEPDAG] | 75% | 61 | 32 min | 48 | 38 min | 55 | 36 min | – | – | – | –
2 | IEPDRL [H7, negative control FRET hexapeptide IEPDRL] | 60% | – | – | 14 | – | 13 | – | – | – | – | –
3 | IEPDSG [H2, FRET hexapeptide IEPDSG] | 80% | 67 | 13 min | 70 | 15 min | 69 | 14 min | 11.2 s⁻¹ | – | – | –
4 | IEPDSL [H3, FRET hexapeptide IEPDSL] | 80% | 68 | 15 min | 76 | 18 min | 73 | 14 min | 23.6 s⁻¹ | – | – | –
5 | IEPDWL [H4, FRET hexapeptide IEPDWL] | 82% | 78 | 51 min | 73 | 55 min | 75 | 56 min | 28.2 s⁻¹ | – | – | –
6 | IEPDWR [H6, negative control FRET hexapeptide IEPDWR] | 40% | – | – | 39 | – | 40 | – | – | 12 | – | –
7 | {BODIPY(FL)}-IEPDSG-{Dabcyl′} [hexapeptide H2] | – | – | – | – | – | – | – | – | – | 80% | –
8 | {BODIPY(FL)}-IEPDSL-{Dabcyl′} [peptide H3] | – | – | – | – | – | – | – | – | – | – | 80%
9 | {BODIPY(FL)}-IEPDWL-{Dabcyl′} [peptide H4] | – | – | – | – | – | – | – | – | – | – | 82%
10 | {BODIPY(FL)}-IEPDRL-{Dabcyl′} [hexapeptide H7] | – | – | – | – | – | – | – | – | – | – | 60%
11 | {BODIPY(FL)}-IEPDAG-{Dabcyl′} [hexapeptide H1] | – | – | – | – | – | – | – | – | – | 75% | –
